Active and inactive are the calls of the source. The calls are words filed in the database; no cut-off is given here.
Columns and labels:
Acetylcholinesterase = Acetylcholinesterase (Electrophorus electricus, UniProt O42275)
Description: Inhibition of electric eel AChE by Ellman's method

Cholinesterase = Cholinesterase (Equus caballus, UniProt P81908)
Description: Inhibition of equine serum BuChE by Ellman's method

[1] = molecular target: Cholinesterase (Equus caballus) (UniProt P81908); test: Mixed reversible inhibition of equine serum BuChE assessed as decrease in Vmax and increase in Km at 3.13 to 12.5 uM by Lineweaver-burk plot analysis; conditions: dose 3.13-12.5 µM
[2] = molecular target: Cholinesterase (Equus caballus) (UniProt P81908); test: Mixed reversible inhibition of equine serum BuChE assessed as decrease in Vmax and increase in Km at 1.56 to 6.25 uM by Lineweaver-burk plot analysis; conditions: dose 1.56-6.25 µM
[3] = molecular target: Cholinesterase (Equus caballus) (UniProt P81908); test: Potency index,ratio of isatin IC50 to test compound IC50 for inhibition of equine serum BuChE

Sequence of Acetylcholinesterase (O42275 whole entry): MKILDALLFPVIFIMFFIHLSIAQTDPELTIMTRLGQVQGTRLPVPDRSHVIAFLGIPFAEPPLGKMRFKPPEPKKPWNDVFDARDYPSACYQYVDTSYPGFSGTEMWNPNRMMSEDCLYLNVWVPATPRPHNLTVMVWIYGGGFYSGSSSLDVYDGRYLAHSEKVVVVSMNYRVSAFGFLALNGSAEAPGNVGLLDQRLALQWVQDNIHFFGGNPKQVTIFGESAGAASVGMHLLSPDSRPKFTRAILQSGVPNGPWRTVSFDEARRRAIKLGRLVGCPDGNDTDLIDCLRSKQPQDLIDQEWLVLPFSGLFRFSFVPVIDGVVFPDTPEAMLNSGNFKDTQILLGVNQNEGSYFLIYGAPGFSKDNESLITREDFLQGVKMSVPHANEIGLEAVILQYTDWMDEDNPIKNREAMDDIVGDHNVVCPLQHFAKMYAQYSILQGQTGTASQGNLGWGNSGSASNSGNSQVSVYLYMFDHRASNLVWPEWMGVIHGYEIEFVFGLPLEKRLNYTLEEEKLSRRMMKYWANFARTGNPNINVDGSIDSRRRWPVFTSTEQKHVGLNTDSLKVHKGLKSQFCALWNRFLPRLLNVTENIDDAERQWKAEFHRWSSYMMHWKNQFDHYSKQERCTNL
Sequence of Cholinesterase (P81908 whole entry): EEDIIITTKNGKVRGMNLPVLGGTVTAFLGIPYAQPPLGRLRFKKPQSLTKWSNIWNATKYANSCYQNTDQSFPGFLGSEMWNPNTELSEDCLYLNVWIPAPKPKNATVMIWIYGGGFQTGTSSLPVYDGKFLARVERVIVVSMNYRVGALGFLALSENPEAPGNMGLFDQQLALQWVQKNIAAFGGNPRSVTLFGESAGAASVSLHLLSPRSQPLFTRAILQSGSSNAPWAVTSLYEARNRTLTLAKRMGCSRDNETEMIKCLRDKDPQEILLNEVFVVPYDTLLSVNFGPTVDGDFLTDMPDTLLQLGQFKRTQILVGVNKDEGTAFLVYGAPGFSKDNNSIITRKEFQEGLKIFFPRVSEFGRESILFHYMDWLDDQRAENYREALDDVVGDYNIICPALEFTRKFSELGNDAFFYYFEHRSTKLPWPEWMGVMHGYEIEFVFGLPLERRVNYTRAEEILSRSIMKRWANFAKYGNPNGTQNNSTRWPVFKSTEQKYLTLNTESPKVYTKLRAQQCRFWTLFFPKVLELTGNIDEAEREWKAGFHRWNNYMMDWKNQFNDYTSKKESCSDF
Sequence of Cholinesterase (Equus caballus) (P81908 whole entry): as above

Structure (SMILES) | IC50 (Acetylcholinesterase) | IC50 (Cholinesterase) | inhibition [1] | inhibition [2] | Ratio IC50 [3]
O=C1C(=O)N(CCCCCCN2C(=O)C(=O)c3ccccc32)c2ccccc21 | > 50 µM | > 50 µM | – | – | –
O=C1N(CCCCCN2C(=O)C(O)(c3c[nH]c4ccccc34)c3ccccc32)c2ccccc2C1(O)c1c[nH]c2ccccc12 (centres undefined) | > 50 µM | – | Active | – | –
O=C1N(CCCCCCN2C(=O)C(O)(c3c[nH]c4ccccc34)c3ccccc32)c2ccccc2C1(O)c1c[nH]c2ccccc12 (centres undefined) | > 50 µM | 14 µM | – | – | –
O=C1C(=O)N(CCCCCCCCN2C(=O)C(=O)c3ccccc32)c2ccccc21 | > 50 µM | > 50 µM | – | – | –
O=C1Nc2ccccc2C1=O [ISATIN] | > 1000 µM | > 1000 µM | – | – | –
O=C1Nc2ccccc2C1(O)c1c[nH]c2ccccc12 (centres undefined) | 1300 µM | 357 µM | – | – | –
O=C1C(=O)N(CCCCCN2C(=O)C(=O)c3ccccc32)c2ccccc21 | > 50 µM | 7.56 µM | – | – | –
O=C1N(CCCCN2C(=O)C(O)(c3c[nH]c4ccccc34)c3ccccc32)c2ccccc2C1(O)c1c[nH]c2ccccc12 (centres undefined) | > 50 µM | 11.8 µM | – | – | –
O=C1N(CCCN2C(=O)C(O)(c3c[nH]c4ccccc34)c3ccccc32)c2ccccc2C1(O)c1c[nH]c2ccccc12 (centres undefined) | > 50 µM | 6.47 µM | – | – | –
O=C1C(=O)N(CCCCN2C(=O)C(=O)c3ccccc32)c2ccccc21 | > 125 µM | 34.7 µM | – | – | –
O=C1C(=O)N(CCCN2C(=O)C(=O)c3ccccc32)c2ccccc21 | > 125 µM | > 125 µM | – | – | –
O=C1C(=O)N(CCCCCCCN2C(=O)C(=O)c3ccccc32)c2ccccc21 | > 50 µM | 3.2 µM | – | Active | 300
O=C1N(CCN2C(=O)C(O)(c3c[nH]c4ccccc34)c3ccccc32)c2ccccc2C1(O)c1c[nH]c2ccccc12 (centres undefined) | > 50 µM | > 50 µM | – | – | –
O=C1C(=O)N(CCN2C(=O)C(=O)c3ccccc32)c2ccccc21 | > 125 µM | > 125 µM | – | – | –
O=C1N(CCCCCCCCN2C(=O)C(O)(c3c[nH]c4ccccc34)c3ccccc32)c2ccccc2C1(O)c1c[nH]c2ccccc12 (centres undefined) | > 50 µM | > 25 µM | – | – | –
O=C1N(CCCCCCCN2C(=O)C(O)(c3c[nH]c4ccccc34)c3ccccc32)c2ccccc2C1(O)c1c[nH]c2ccccc12 (centres undefined) | > 50 µM | 13.2 µM | – | – | –
